According to patent US20210188839A1, “COMPOUNDS AND THEIR METHODS OF USE” (Praxis Precision Medicines, Inc., priority 2016, published 2021):

Molecular target: T1, human Nav1.6 (hNav1.6) (Homo sapiens, UniProt Q9UQD0)
T1 construct: expressed in transfected cells; host or cells: HEK-293
Assay: Modulation of late sodium current (INaL), PatchXpress high throughput electrophysiology
Assay type: cell-based
Conditions: HEK293; 1 μM compound; HEK-293 cells expressing recombinant hNav1.6; late current evoked by 300 nM ATX-II
Procedure: Functional characterization of exemplary compounds to modulate INaL expressed by the Nav1.6 voltage-gated sodium channel was accomplished using the PatchXpress' high throughput electrophysiology platform (Molecular Devices, Sunnyvale, Calif.). HEK-293 cells expressing recombinant, human Nav1.6 (hNav1.6) were grown in DMEM/high-glucose Dulbecco's modified, 10% FBS, 2 mM sodium pyruvate, 10 mM HEPES and 400 μg/mL G418. Cells were grown to 50%-80% confluency prior to harvesting. […] The onboard liquid handling facility of the PatchXpress was used for dispensing cells and applying test compounds. Nav late currents were evoked by the application of 300 nM ATX-II. […] INaL amplitude and stability were determined by analyzing the mean current amplitude over the final 20 ms of thetest pulse. […] Percent steady-state inhibition of INaL was calculated as: [(INaL_compound)/(INaL_control)]*100, where INaL_compound and INaL_control represent INaL recorded in the presence or absence of compound, respectively.

T1 sequence (Q9UQD0 whole entry): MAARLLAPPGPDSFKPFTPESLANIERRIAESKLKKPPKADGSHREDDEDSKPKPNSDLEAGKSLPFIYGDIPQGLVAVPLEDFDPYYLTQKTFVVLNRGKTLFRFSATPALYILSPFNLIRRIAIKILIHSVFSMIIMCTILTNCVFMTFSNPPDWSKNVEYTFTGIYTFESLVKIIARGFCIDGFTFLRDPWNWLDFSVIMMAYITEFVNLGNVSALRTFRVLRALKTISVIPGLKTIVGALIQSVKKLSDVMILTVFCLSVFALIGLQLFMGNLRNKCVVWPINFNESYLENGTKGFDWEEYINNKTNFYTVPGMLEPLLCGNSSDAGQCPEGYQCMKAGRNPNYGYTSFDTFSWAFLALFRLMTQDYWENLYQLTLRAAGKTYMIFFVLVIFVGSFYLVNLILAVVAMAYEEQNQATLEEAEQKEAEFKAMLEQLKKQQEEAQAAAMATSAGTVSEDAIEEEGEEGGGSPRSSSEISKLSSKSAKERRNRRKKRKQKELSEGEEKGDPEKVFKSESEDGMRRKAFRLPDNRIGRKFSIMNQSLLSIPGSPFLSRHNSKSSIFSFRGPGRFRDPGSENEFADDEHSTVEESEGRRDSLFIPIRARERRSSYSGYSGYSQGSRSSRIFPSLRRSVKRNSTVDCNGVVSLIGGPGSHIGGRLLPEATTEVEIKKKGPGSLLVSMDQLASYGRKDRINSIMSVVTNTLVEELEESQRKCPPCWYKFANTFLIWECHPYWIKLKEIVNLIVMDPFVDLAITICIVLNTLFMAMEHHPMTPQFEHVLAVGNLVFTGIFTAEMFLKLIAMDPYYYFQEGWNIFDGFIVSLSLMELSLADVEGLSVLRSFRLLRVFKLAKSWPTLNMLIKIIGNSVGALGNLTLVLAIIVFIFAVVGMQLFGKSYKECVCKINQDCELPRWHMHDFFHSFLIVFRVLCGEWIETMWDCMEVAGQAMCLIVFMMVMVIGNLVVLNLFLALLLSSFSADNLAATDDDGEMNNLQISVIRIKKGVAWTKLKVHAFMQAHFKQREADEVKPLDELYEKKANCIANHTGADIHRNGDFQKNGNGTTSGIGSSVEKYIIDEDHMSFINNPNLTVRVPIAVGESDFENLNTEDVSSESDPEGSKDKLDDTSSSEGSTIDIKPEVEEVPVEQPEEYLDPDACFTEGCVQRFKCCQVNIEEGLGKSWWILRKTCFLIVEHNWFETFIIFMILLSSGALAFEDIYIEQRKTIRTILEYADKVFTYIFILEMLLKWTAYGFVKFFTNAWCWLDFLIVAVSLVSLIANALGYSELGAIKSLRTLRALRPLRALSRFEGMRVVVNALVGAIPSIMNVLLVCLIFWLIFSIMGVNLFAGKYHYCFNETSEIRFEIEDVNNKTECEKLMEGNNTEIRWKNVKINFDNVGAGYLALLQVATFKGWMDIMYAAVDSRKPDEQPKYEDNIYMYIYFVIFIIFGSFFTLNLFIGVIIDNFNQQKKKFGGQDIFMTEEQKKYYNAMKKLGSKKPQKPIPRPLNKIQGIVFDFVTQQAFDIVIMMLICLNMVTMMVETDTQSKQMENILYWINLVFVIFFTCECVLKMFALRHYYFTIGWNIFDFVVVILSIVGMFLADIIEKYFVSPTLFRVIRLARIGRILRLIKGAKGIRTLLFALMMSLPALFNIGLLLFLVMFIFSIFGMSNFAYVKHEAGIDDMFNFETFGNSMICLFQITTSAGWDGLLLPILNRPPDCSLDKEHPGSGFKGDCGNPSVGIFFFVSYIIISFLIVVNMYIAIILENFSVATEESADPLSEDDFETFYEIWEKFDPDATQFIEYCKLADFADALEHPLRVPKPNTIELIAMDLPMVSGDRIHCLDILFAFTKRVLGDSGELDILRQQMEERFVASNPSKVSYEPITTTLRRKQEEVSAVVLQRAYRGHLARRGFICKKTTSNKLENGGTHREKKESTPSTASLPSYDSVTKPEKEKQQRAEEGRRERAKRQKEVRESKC

Compound | inhibition at 1 µM [%]
Cc1cc(OC(F)(F)F)ccc1-c1cc2c(C(F)(F)F)cnn2cn1 [Compound 23, 5-[2-methyl-4-(trifluoromethoxy)phenyl]-3-(trifluoromethyl)pyrazolo[1,5-c]pyrimidine] | < 50
FC(F)(F)Oc1ccc(-c2cc3ccnn3cn2)cc1 [Compound 24, 5-[4-(trifluoromethoxy)phenyl]pyrazolo[1,5-c]pyrimidine] | < 50
FC(F)(F)Oc1ccc(-c2ccc3nccn3c2)cc1 [Compound 6] | < 50
COc1cc(OC(F)(F)F)ccc1-c1ccn2nccc2c1 [Compound 14, 5-[2-methoxy-4-(trifluoromethoxy)phenyl]pyrazolo[1,5-a]pyridine] | > 50
N#CC1(c2ccc(-c3ccn4ncc(C(F)(F)F)c4c3)cc2)CC1 [Compound 43, 1-[4-[3-(trifluoromethyl)pyrazolo[1,5-a]pyridin-5-yl]phenyl]cyclopropanecarbonitrile] | < 50
FC(F)(F)COc1ccc(-c2ccn3ncc(C(F)(F)F)c3c2)cn1 [Compound 45, 5-[6-(2,2,2-trifluoroethoxy)-3-pyridyl]-3-(trifluoromethyl)pyrazolo[1,5-a]pyridine] | > 50
FC(F)(F)Oc1ccc(-c2cn3ccnc3cn2)cc1 [Compound 20] | < 50
COC(C)(C)c1ccc(-c2ccn3ncc(C(F)(F)F)c3c2)cc1 [Compound 44, 5-[4-(1-methoxy-1-methyl-ethyl)phenyl]-3-(trifluoromethyl)pyrazolo[1,5-a]pyridine] | < 50
FC(F)(F)Oc1ccc(-c2ccc3nccn3n2)cc1 [Compound 18] | < 50
FC(F)(F)Oc1ccc(-c2cnn3nccc3c2)cc1 [Compound 28, 5-[4-(trifluoromethoxy)phenyl]pyrazolo[1,5-b]pyridazine] | < 50
N#CC1(c2ccc(-c3ccc4ncc(C(F)(F)F)n4c3)cc2)CC1 [Compound 5] | < 50
Cc1cc(OC(F)(F)F)ccc1-c1cnn2ncc(C(F)(F)F)c2c1 [Compound 27, 5-[2-methyl-4-(trifluoromethoxy)phenyl]-3-(trifluoromethyl)pyrazolo[1,5-b]pyridazine] | < 50
Cc1cn2cc(-c3ccc(OC(F)(F)F)cc3)cnc2n1 [Compound 32, 2-methyl-6-[4-(trifluoromethoxy)phenyl]imidazo[1,2-a]pyrimidine] | < 50
COCc1cc(OC(F)(F)F)ccc1-c1cnc2ncc(C(F)(F)F)n2c1 [Compound 30, 6-[2-(methoxymethyl)-4-(trifluoromethoxy)phenyl]-3-(trifluoromethyl)imidazo[1,2-a]pyrimidine] | < 50
FC(F)(F)Oc1ccc(-c2cnc3nccn3c2)cc1 [Compound 16] | < 50
FC(F)(F)COc1ccc(-c2ccn3nccc3c2)cn1 [Compound 15, 5-[6-(2,2,2-trifluoroethoxy)-3-pyridyl]pyrazolo[1,5-a]pyridine] | > 50
Cc1cc(OC(F)(F)F)ccc1-c1cnn2ncc(C(=O)N(C)C)c2c1 [Compound 50, N,N-dimethyl-5-[2-methyl-4-(trifluoromethoxy)phenyl]pyrazolo [1,5-b]pyridazine-3-carboxamide] | < 50
Cc1cc(OC(F)(F)F)ccc1-c1cnn2nccc2c1 [Compound 26, 5-[2-methyl-4-(trifluoromethoxy)phenyl]pyrazolo[1,5-b]pyridazine] | < 50
COCc1cc(OC(F)(F)F)ccc1-c1cn2c(C(F)(F)F)cnc2cn1 [Compound 41, 6-[2-(methoxymethyl)-4-(trifluoromethoxy)phenyl]-3-(trifluoromethyl)imidazo[1,2-a]pyrazine] | > 50
COC(C)(C)c1ccc(-c2ccc3ncc(C(F)(F)F)n3c2)cc1 [Compound 4] | > 50
COc1cc(OC(F)(F)F)ccc1-c1ccn2ncc(C(F)(F)F)c2c1 [Compound 42, 5-[2-methoxy-4-(trifluoromethoxy)phenyl]-3-(trifluoromethyl)pyrazolo[1,5-a]pyridine] | > 50
Cc1cc(OC(F)(F)F)ccc1-c1cc2ccnn2cn1 [Compound 22, 5-[2-methyl-4-(trifluoromethoxy)phenyl]pyrazolo[1,5-c]pyrimidine] | < 50

The next lines start with the values.

inhibition at 1 µM [%] | Compound
> 50 | COc1cc(OC(F)(F)F)ccc1-c1ccc2ncc(C(F)(F)F)n2c1 [Compound 2]
> 50 | FC(F)(F)Oc1ccc(-c2cc3c(C(F)(F)F)cnn3cn2)cc1 [Compound 25a, 5-[4-(trifluoromethoxy)phenyl]-3-(trifluoromethyl)pyrazolo[1,5-c]pyrimidine]
< 50 | Cc1nc2ncc(-c3ccc(OC(F)(F)F)cc3)cn2c1C(F)(F)F [Compound 33, 2-methyl-6-[4-(trifluoromethoxy)phenyl]-3-(trifluoromethyl)imidazo[1,2-a]pyrimidine]
> 50 | FC(F)(F)Oc1ccc(-c2cnn3ncc(C(F)(F)F)c3c2)cc1 [Compound 29, 5-[4-(trifluoromethoxy)phenyl]-3-(trifluoromethyl)pyrazolo[1,5-b]pyridazine]
> 50 | FC(F)(F)c1ccc(-c2cn3c(C(F)(F)F)cnc3cn2)cc1 [Compound 34, 3-(trifluoromethyl)-6-[4-(trifluoromethyl)phenyl]imidazo[1,2-a]pyrazine]
< 50 | Cc1cc(OC(F)(F)F)ccc1-c1cnc2ncc(C(F)(F)F)n2c1 [Compound 31, 6-[2-methyl-4-(trifluoromethoxy)phenyl]-3-(trifluoromethyl)imidazo[1,2-a]pyrimidine]
< 50 | FC(F)(F)Oc1ccc(-c2cnc3ncc(C(F)(F)F)n3c2)cc1 [Compound 17]
< 50 | FC(F)(F)Oc1ccc(-c2ccc3ncc(C(F)(F)F)n3n2)cc1 [Compound 19]
> 50 | FC(F)(F)COc1ccc(-c2ccc3ncc(C(F)(F)F)n3c2)cn1 [Compound 3]
< 50 | N#CC1(c2ccc(-c3cn4c(C(F)(F)F)cnc4cn3)cc2)CC1 [Compound 35, 1-[4-[3-(trifluoromethyl)imidazo[1,2-a]pyrazin-6-yl]phenyl]cyclopropanecarbonitrile]
> 50 | FC(F)(F)Oc1ccc(-c2cn3c(C(F)(F)F)cnc3cn2)cc1 [Compound 21]
> 50 | Fc1cc(-c2cn3c(C(F)(F)F)cnc3cn2)cnc1OCC(F)(F)F [Compound 36, 6-[5-fluoro-6-(2,2,2-trifluoroethoxy)-3-pyridyl]-3-(trifluoromethyl)imidazo[1,2-a]pyrazine]
> 50 | FC(F)(F)Oc1ccc(-c2cc3c(C(F)(F)C(F)(F)F)cnn3cn2)cc1 [Compound 25b, 3-(1,1,2,2,2-pentafluoroethyl)-5-[4-(trifluoromethoxy)phenyl]pyrazolo[1,5-c]pyrimidine]
